Test results published in patent US20020038064A1, “Colorless petroleum marker dyes” (priority 2000, published 2002).

Assay: Water extraction test of 10 ppm marker solution in kerosene
Assay type: physicochemical
Settings: 10 mL of 10 ppm solution in kerosene stirred with 10 mL water for ½ hour; layers separated, 2 mL developer added to each layer
Method: A marker solution was prepared by dissolving a 100 mg portion of the residue in xylenes (100 mL), and diluting 1 mL of the resulting solution to 100 mL with kerosene to make a 10 ppm solution.
A developer was made by dissolving 1 g of a 40% solution of benzyltrimethylammonium hydroxide in methanol in 99 g of 2-ethyl-1-hexanol. To a 10 mL portion of the 10 ppm marker solution prepared above was added 2.5 mL of the developer. […] If necessary, quantitative determination of the marker concentration can be accomplished by measuring the absorbance of the solution at a wavelength of 581 nm.
A 10 mL portion of the 10 ppm solution prepared above was stirred with 10 mL of water for ½ hour and the layers were separated. […] Addition of 2 mL of developer solution to the water layer gave no color.

CCCC(=O)Oc1ccc(C2(c3ccc(OC(=O)CCC)c(C)c3)OC(=O)c3ccccc32)cc1C [Example 1, Di-n-Butyl Ester of o-Cresolphthalein]
extraction of the marker into the water layer: not extracted into the water layer
